According to patent publication US20220304945A1, “METHODS OF TREATING METABOLIC SYNDROME RELATED CONDITIONS USING RETINOIC ACID RECEPTOR AGONISTS” (Cornell University, priority 2014, published 2022):
Entries after “also recorded” stand apart in the source; their conditions may differ.

Tests used:
RARβ2 mRNA = assay: Semi-quantitative PCR of pancreas, LRAT −/− vitamin A deficient mice; type: in vivo, mouse; settings: treated 8 weeks
Method: FIG. 10. Gene expression of RARβ2 in pancreatic tissue from LRAT −/− vitamin A sufficient mice (VAS, normal control diet), LRAT −/− vitamin A deficient (VAD) mice, and LRAT −/− vitamin A deficient (VAD) mice treated with AC261066 for 8 weeks.
(§1) Semi-Quantitate PCR. Total RNA was extracted from mouse tissues using TRIzol reagent (Life technologies) and (1 μg) was used to synthesize cDNA. cDNA synthesis was performed at 42° C. for 1 h in a final volume of 20 μl using qScript (Quanta, MD). Semi-quantitative PCR were performed Taq DNA polymerase (Invitrogen, CA). Three step PCR was run as follows: 94° C. for 30 s, 58-64° C. for 45 s for primer annealing and 72° C. for 1 min for primer extension. The number of cycles for each primer pair for amplification in the linear range was determined experimentally. PCR products were resolved on 2% agarose gels and visualized by staining with ehtidium bromide. Primers for gene expression used were as follows: […]

α-SMA = α-SMA immunofluorescence of kidney, HF-fed mice; type: in vivo, mouse; settings: HF diet mice 4 months
Source text: (§2) Mice, diet, and drug treatment. WT male C57/BL6 male mice were maintained on either a standard laboratory chow-fed diet (CFD) with 13% kcal fat, (diet #5053, Lab Diet, Inc, St. Louis, Mo.) or a high fat, western style diet (HFD) with 60% kcals from fat, (diet #58126, Lab Diet, Inc., St. Louis, Mo.) for 4 months. One month after the start of the high fat diet treatment, the high fat diet group was further split into 2 groups for 3 months: i) high fat diet and the drinking water containing 1% DMSO; ii) high fat diet and the drinking water containing 1.5 mg/100 ml AC261066, a specific RARβ agonist. Then mice were sacrificed by cervical dislocation. Blood and various tissue samples were harvested.
Combined oil red O and Immunofluorescence staining. Fresh mouse kidney samples were embedded in optimal cutting temperature (OCT) medium and immediately frozen to −70 centigrade. Cryosections were then fixed in 4% formaldehyde for 1 hr at room temp. Slides were then rinsed three times in deionized water (dH2O) for 30 s, followed by treatment with 0.5% Triton X-100 in PBS for 5 min. Sections were then washed three times with PBS for 5 min. Samples were with incubated 2% bovine serum albumin (BSA) for 30 min at room temperature to block for unspecific antibody binding. […]

TNF-α, RARβ2, LRAT mRNA = assay: Semi-quantitative PCR of kidney, HF-fed mice; type: in vivo, mouse; settings: HF diet mice 4 months
Source text: as §2
as §1, with “Semi-Quantitative” for “Semi-Quantitate”

[1] = system: renal stellate cells (RSCs); assay: Double immunofluorescence (vimentin, α-SMA) of renal stellate cells in Db/Db mice; type: in vivo, mouse; settings: Db/Db mice treated for 4 weeks
Source text: Retinoic Acid Receptor β (RARβ) Agonists Diminish The Activation of Fibrogenic Kidney Stellate Cells. Given that we observed a significant decrease in mRNA transcripts of α-SMA we measured kidney protein expression of α-SMA in fibrogenic renal stellate cells Renal stellate cells (RSCs) are resident kidney fibroblasts, which in response to inflammation undergo differentiation to “activated” myofibroblasts that secrete contractile proteins such as α-SMA. […] RSCs express the mesenchymal protein marker vimentin. We used double immunofluorescence to label RSCs and determine the percentage of activated RSCs expressing the fibrogenic protein α-SMA. Using Db/Db mice, which spontaneously diabetes and DN in a similar manner to humans, we detected more than a 4-fold increase in activated α-SMA positive RSCs compared to wt con mice (FIG. 33F, G). Db/Db mice treated with AC261066 for 4 weeks had more than a 50% reduction in α-SMA positive RSCs (FIG. 33F, G).
METHODS. Immunofluorescence and Immunostaining Microscopy-Paraffin embedded pancreatic tissue sections were incubated with antibodies against: insulin (mouse monoclonal 1:300, #1061, Beta Cell Biology Consortium), vimentin (rabbit polyclonal 1:500, Santa Cruz), or α-SMA (mouse monoclonal, 1:1000, Dako, Inc).

RARβ2 = target: T1, RARβ2 (Homo sapiens, UniProt P10826); settings: as described in Lund et al. 2005; cited from earlier work
T1 sequence (P10826 1-448 isoform P10826-2): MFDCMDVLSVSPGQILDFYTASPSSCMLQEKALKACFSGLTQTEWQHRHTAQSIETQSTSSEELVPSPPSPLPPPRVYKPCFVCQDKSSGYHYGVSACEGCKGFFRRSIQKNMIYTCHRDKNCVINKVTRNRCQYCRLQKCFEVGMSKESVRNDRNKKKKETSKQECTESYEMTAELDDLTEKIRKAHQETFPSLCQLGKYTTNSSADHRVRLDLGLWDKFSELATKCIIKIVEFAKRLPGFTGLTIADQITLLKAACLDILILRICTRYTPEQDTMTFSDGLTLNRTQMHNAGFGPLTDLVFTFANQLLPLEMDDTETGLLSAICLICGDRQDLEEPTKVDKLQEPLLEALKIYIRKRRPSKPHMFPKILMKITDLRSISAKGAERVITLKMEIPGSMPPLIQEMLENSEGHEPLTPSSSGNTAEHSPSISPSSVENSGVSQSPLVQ

Compound: CCCCOCCOc1nc(-c2ccc(C(=O)O)c(F)c2)sc1C [AC261066]
- pancreatic RARβ2 mRNA level (RARβ2 mRNA): increased
- α-SMA positive areas in kidney (α-SMA): diminished; also recorded: not observed
- kidney LRAT mRNA level (TNF-α, RARβ2, LRAT mRNA): restores
- kidney RARβ2 mRNA level (TNF-α, RARβ2, LRAT mRNA): restores; also recorded: did not have decreased
- kidney TNF-α mRNA level (TNF-α, RARβ2, LRAT mRNA): reduces
- reduction in α-SMA positive RSCs [1]: > 50%
- isoform selectivity for the human RARβ2 receptors (RARβ2): highly isoform-selective agonists
